{"source": "patent US8987309B2", "about": "“Compounds, pharmaceutical compositions and methods of use of 2-aryl pyridylazoles” (The Translational Genomics Research Institute, priority 2009, dated 2015)", "key": {"PC3": {"tested_on": "PC3", "assay": "IC50 in tumor cell lines (PC3)", "assay_type": "cell-based", "conditions": "prostate tumor cell line PC3", "method": "(§1) Cytotoxicity Assays. Cytotoxicity assays in the mechanism of action studies were performed according to Mosmann (1983), wherein the activity of mitochondrial reductases were measured using 3-(4,5-dimethylthiozol-3-yl)-2,5-diphenyltetrozolium bromide dye. In brief, cells were seeded in 96-well plates and incubated for various times at 37° C. Inhibition of cell growth was measured by adding 3-(4,5-dimethylthiozol-3-yl)-2,5-diphenyltetrozolium bromide dye, and after an additional 4 h of incubation at 37° C., the 96-well plates were centrifuged, and the culture supernatant was removed. DMSO was added to each well to solubilize the formazan crystals, and the optical density was read at 540 nm on a Quant Spectrophotometer (BioTek Instruments, Winooski, Vt.). Cell growth inhibition data are expressed as percentage of survival compared with untreated cells. The IC50 is defined as the drug concentration required to produce 50% growth inhibition. Results are mean S.E.M. (n 3)."}, "DU145": {"tested_on": "DU145", "assay": "IC50 in tumor cell lines (DU145)", "assay_type": "cell-based", "conditions": "Table 1; prostate tumor cell line DU145", "method": "as §1"}, "H460": {"tested_on": "H460", "assay": "IC50 in tumor cell lines (H460)", "assay_type": "cell-based", "conditions": "lung tumor cell line H460", "method": "as §1"}, "A549": {"tested_on": "A549", "assay": "IC50 in tumor cell lines (A549)", "assay_type": "cell-based", "conditions": "lung tumor cell line A549", "method": "as §1"}, "A498": {"tested_on": "A498", "assay": "IC50 in tumor cell lines (A498)", "assay_type": "cell-based", "conditions": "Table 2; kidney tumor cell line A498", "method": "as §1"}, "Caki-1": {"tested_on": "Caki-1", "assay": "IC50 in tumor cell lines (Caki-1)", "assay_type": "cell-based", "conditions": "Table 2; kidney tumor cell line Caki-1", "method": "as §1"}, "MDA231": {"tested_on": "MDA231", "assay": "IC50 in tumor cell lines (MDA231)", "assay_type": "cell-based", "conditions": "Table 2; breast tumor cell line MDA231", "method": "as §1"}, "PDGFRα": {"molecular_target": "T1, PDGFRα (Homo sapiens, UniProt P16234)", "T1 construct": "assay run by Amphora Discovery Corporation (Durham, N.C.)", "T1 sequence (P16234 24-1089, species assumed)": "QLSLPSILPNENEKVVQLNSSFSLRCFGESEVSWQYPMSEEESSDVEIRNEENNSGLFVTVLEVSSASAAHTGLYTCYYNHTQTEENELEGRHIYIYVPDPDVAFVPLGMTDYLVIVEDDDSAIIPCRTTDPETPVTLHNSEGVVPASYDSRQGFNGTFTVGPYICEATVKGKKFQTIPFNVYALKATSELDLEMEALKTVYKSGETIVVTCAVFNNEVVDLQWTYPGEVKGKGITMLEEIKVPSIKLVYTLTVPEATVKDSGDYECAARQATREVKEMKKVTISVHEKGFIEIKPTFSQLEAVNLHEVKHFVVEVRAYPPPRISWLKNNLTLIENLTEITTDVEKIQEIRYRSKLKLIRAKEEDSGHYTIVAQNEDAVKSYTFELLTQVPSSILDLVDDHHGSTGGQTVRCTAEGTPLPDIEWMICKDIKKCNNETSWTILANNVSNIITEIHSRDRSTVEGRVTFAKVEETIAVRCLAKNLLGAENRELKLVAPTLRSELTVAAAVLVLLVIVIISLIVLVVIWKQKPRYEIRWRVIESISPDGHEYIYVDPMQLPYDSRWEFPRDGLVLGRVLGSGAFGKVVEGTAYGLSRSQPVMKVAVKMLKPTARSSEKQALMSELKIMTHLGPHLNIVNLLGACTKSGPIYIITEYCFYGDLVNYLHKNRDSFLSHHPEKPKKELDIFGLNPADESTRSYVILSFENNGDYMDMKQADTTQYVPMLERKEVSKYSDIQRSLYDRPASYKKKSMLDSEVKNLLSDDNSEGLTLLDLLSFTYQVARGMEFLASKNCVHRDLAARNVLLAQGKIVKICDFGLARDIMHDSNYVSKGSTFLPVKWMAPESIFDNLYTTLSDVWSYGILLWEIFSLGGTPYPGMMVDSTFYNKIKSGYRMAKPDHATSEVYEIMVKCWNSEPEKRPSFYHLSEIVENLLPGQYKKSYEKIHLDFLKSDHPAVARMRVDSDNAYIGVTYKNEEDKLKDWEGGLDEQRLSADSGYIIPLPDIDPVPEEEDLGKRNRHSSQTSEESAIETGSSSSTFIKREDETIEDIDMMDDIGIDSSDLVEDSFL", "assay": "Initial kinase screening (Amphora), PDGFRα", "assay_type": "biochemical", "conditions": "10 μM compound", "method": "(§2) Kinase Screening. Initial kinase screening was performed by Amphora Discovery Corporation (Durham, N.C.)."}, "IRAK-4": {"molecular_target": "T2, IRAK-4 (Homo sapiens, UniProt Q9NWZ3)", "T2 construct": "assay run by SignalChem Pharmaceuticals, Inc. (Richmond, BC, Canada)", "T2 sequence (Q9NWZ3 whole entry)": "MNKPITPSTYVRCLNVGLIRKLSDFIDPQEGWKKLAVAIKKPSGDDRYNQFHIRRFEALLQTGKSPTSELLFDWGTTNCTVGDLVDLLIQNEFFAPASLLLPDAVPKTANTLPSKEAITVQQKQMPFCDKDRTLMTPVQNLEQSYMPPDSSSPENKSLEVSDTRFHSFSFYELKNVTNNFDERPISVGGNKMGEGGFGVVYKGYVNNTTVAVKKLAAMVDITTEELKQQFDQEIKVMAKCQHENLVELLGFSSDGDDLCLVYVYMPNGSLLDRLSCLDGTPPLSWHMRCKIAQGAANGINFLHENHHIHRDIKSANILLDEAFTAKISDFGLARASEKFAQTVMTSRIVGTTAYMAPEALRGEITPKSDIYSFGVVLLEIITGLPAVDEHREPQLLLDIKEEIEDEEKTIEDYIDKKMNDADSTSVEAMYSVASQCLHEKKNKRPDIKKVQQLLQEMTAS", "assay": "Follow-up kinase screening and IC50 (SignalChem), IRAK-4", "assay_type": "biochemical"}, "BxPC3 DPC-4(−/−) cells": {"tested_on": "BxPC3 DPC-4(−/−) cells", "assay": "Measurement of apoptosis and necrosis (Annexin V/PI)", "assay_type": "cell-based, Human", "conditions": "24 to 72 h, highest concentration 1500 nM", "method": "Measurement of Apoptosis and Necrosis. Apoptosis and necrosis after DPC-046 treatment was measured at 24 to 72 h by flow cytometry (Vermes et al., 1995) using Annexin V-Alexa Fluor 488 (Invitrogen) and propidium iodide (BioVision, Mountain View, Calif.). Because of the greater photostability of Alexa Fluor 488 over fluorescein isothiocyanate, we substituted Alexa Fluor 488-labeled Annexin V for fluorescein isothiocyanate-labeled Annexin V. Apoptosis was measured by positive Annexin V staining, indicating the translocation of phosphatidylserine on the cell membrane of apoptotic cells, whereas necrosis was measured by dual labeling of Annexin V and propidium iodide of necrotic cells. Unstained cells were deemed alive. Fluorescence of Annexin V-Alexa Fluor 488 and PI was measured on FL1 and FL2, respectively, on a BD Biosciences FACScan using CellQuest Pro software (BD Biosciences). Data are mean S.E.M. (n 3).\nMean±S.E.M., n=3. […] Mean±S.E.M., n=3. […] Mean tumor burden is shown."}, "[1]": {"assay": "Pharmacokinetic study, single intravenous dose", "assay_type": "in vivo, SCID mice", "conditions": "single intravenous 88 mg/kg", "method": "Pharmacokinetic Studies. The pharmacokinetics of DPC-046 in nontumor bearing SCID mice was determined after intravenous administration of a single dose of 88 mg/kg. Plasma samples were collected at 0, 1, 5, 15, 30, 60, 90, 120, 240, 480, 960, and 1440 min after dosing. Plasma DPC-046 concentrations were analyzed by reversed-phase chromatography and tandem mass spectrometry. In brief, mouse plasma was mixed with 99 volumes of acetonitrile, and an aliquot of the supernatant was injected onto the LC-MS. The LC-MS analysis was performed on a ThermoFinnigan Quantum Ultra triple quadrupole mass spectrometer (Thermo Fisher Scientific, Waltham, Mass.) in tandem with a Surveyor LC system. […] Data are mean±S.E.M. (n=3)."}, "[2]": {"assay": "Plasma protein binding (rapid equilibrium dialysis), human plasma", "assay_type": "in vitro ADME", "conditions": "plasma concentration of 3.27 μM", "method": "Plasma Protein Binding. Plasma protein binding of DPC-046 was determined in human and mouse plasma using rapid equilibrium dialysis (RED) devices manufactured by Thermo Fisher Scientific. Plasma pH was adjusted to 7.4 and spiked with DPC-046 to a final plasma concentration of 1 μg/ml. Aliquots (500 μl) of the spiked plasma were placed into the sample chamber, and 750 μl of phosphate-buffered saline were placed into the adjacent chamber. Triplicate samples were loaded into the RED devices. The RED devices were incubated at 37° C. on an orbital shaker operating at 100 rpm for 24 h. […] After the incubation, aliquots of plasma and buffer were removed for the analysis of DPC-046 concentration by LC-MS-MS as described above."}, "PIM-1 [3]": {"molecular_target": "T3, PIM-1 (Homo sapiens, UniProt P11309)", "T3 sequence (P11309 whole entry)": "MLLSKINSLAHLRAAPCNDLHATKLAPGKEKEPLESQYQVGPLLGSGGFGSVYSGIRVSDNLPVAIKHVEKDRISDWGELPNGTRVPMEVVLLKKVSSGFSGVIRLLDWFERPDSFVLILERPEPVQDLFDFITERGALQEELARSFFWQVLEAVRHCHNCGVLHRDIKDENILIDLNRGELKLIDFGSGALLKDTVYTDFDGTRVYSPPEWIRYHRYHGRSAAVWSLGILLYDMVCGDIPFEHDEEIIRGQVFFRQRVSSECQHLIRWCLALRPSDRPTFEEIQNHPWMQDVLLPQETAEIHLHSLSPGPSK", "assay": "Initial kinase screening (Amphora), PIM-1", "assay_type": "biochemical", "set-up": "assay run by Amphora Discovery Corporation (Durham, N.C.)", "conditions": "10 μM compound", "method": "as §2"}, "TrkB": {"molecular_target": "TrkB (Homo sapiens, UniProt Q16620)", "sequence (Q16620 32-822)": "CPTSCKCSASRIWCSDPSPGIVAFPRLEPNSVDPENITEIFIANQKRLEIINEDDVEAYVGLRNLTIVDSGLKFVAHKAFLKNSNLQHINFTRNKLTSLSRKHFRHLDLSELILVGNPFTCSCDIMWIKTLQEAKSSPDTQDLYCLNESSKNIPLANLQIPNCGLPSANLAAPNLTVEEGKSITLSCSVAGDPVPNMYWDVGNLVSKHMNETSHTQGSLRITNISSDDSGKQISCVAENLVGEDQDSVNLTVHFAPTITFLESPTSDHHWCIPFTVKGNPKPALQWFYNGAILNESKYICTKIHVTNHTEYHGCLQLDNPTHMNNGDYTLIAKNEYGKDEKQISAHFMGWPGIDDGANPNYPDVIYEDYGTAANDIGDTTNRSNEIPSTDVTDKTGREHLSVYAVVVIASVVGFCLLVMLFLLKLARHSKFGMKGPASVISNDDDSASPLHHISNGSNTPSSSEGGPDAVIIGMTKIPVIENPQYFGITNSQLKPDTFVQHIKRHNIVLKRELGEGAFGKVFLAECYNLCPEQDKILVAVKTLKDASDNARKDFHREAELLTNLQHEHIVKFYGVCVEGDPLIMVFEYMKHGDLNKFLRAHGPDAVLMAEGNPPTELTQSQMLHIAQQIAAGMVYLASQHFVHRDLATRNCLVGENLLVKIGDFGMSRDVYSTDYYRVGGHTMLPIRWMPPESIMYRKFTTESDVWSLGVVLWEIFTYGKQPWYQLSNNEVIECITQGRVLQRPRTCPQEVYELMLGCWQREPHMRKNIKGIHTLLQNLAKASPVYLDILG", "assay": "Initial kinase screening (Amphora), TrkB", "assay_type": "biochemical", "set-up": "assay run by Amphora Discovery Corporation (Durham, N.C.)", "conditions": "10 μM compound", "method": "as §2"}, "MiaPaCa-2 tumors": {"tested_on": "MiaPaCa-2 tumors", "assay": "Antitumor efficacy and tolerability, MiaPaCa-2 tumors in SCID mice", "protocol": "In Vivo Studies. Six- to 7-week-old male SCID mice were implanted with 10×10^6 MiaPaCa-2 cells in MatriGel (BD Biosciences) subcutaneously in the flank to establish tumors. Once the tumors reached approximately 100 mm^3 and were palpable (approximately 3 weeks later), DPC-046 treatment was initiated. […] Mice were administered vehicle alone or 44, 55, or 66 mg/kg/day DPC-046 intraperitoneally for 5 consecutive days. Tumor size, body weight, and general health of each mouse were recorded every 3rd day for the duration of the study.\nFIG. 15 depicts the antitumor efficacy of (D)PC-046 in SCID mice. 10×10^6 MiaPaCa-2 cells in MatriGel were implanted subcutaneously into the flanks of SCID mice. Mice were randomized on day 6 (arrow) and then injected with vehicle alone or 44 or 55 mg/kg/day (D)PC-046 intraperitoneally daily for 5 consecutive days. Mean tumor burden is shown. Mean±S.D. (n=4 or 5). FIG. 16 depicts the AUC of tumor size versus time of MiaPaCa-2 tumors in SCID mice."}, "PIM-1 [4]": {"molecular_target": "T3, PIM-1", "assay": "Follow-up kinase screening and IC50 (SignalChem), PIM-1", "assay_type": "biochemical", "set-up": "assay run by SignalChem Pharmaceuticals, Inc. (Richmond, BC, Canada)"}, "[5]": {"conditions": "25 μM DPC-046, follow-up screen"}, "[6]": {"conditions": "highest concentration tested (50 μM)"}, "[7]": {"conditions": "66 mg/kg/day i.p., 5 consecutive days, initial dose-ranging study"}}, "data": [{"molecule": "COc1ccc(-c2cnc(-c3ccncc3-c3cccc(OC)c3)o2)cc1", "note": "[DPC046]", "values": [{"measurement": "IC50", "setting": "PC3; Table 1", "result": 6.5, "unit": "nM"}, {"measurement": "IC50", "setting": "PC3; Table 2", "result": 6.5, "unit": "nM"}, {"measurement": "IC50", "setting": "DU145", "result": 27, "unit": "nM"}, {"measurement": "IC50", "setting": "H460; Table 1", "result": 25, "unit": "nM"}, {"measurement": "IC50", "setting": "H460; Table 2", "result": 25, "unit": "nM"}, {"measurement": "IC50", "setting": "A549; Table 1", "result": 22, "unit": "nM"}, {"measurement": "IC50", "setting": "A549; Table 2", "result": 22, "unit": "nM"}, {"measurement": "IC50", "setting": "A498", "result": 14, "unit": "nM"}, {"measurement": "IC50", "setting": "Caki-1", "result": 13, "unit": "nM"}, {"measurement": "IC50", "setting": "MDA231", "result": 17, "unit": "nM"}, {"measurement": "inhibition of PDGFRα", "setting": "PDGFRα", "result": 46, "unit": "%"}, {"measurement": "inhibition of IRAK-4", "setting": "IRAK-4; [5]", "result": "more than 70%"}, {"measurement": "inhibition of IRAK-4", "setting": "IRAK-4; [6]", "result": 92, "unit": "%"}, {"measurement": "mechanism of cell death (in words)", "setting": "BxPC3 DPC-4(−/−) cells; listed as (D)PC-046", "result": "both early apoptotic and necrotic cell death"}, {"measurement": "mechanism of cell death (in words)", "setting": "BxPC3 DPC-4(−/−) cells; listed as DPC-046", "result": "cell death by a combination of apoptosis and necrosis"}, {"measurement": "apparent volume of distribution", "setting": "[1]; mice", "result": 135.2, "unit": "L/kg"}, {"measurement": "clearance", "setting": "[1]; mice", "result": 248, "unit": "mL/min/kg"}, {"measurement": "mean (S.D.) plasma concentration at last sampling time", "setting": "[1]; mice, 24 h", "result": "0.226 (0.104) μM"}, {"measurement": "mean (S.D.) peak plasma concentration", "setting": "[1]; mice, first sampling time (1 min)", "result": "10.8 (4.26) μM"}, {"measurement": "monoexponential half-life", "setting": "[1]; mouse plasma", "result": 7.5, "unit": "h"}, {"measurement": "bound to plasma proteins", "setting": "[2]", "result": 85, "unit": "%"}, {"measurement": "inhibition of PIM-1", "setting": "PIM-1 [3]", "result": 50, "unit": "%"}, {"measurement": "inhibition of TrkB", "setting": "TrkB", "result": 55, "unit": "%"}, {"measurement": "antitumor efficacy (in words)", "setting": "MiaPaCa-2 tumors; 44 mg/kg/day daily for 5 days", "result": "not effective"}, {"measurement": "average loss of body weight", "setting": "MiaPaCa-2 tumors; 55 mg/kg/day group, while receiving injections, recovered by end of study", "result": 15.8, "unit": "%"}, {"measurement": "area under the tumor size X time curve vs controls (in words)", "setting": "MiaPaCa-2 tumors; 55 mg/kg/day group, p=0.014", "result": "statistically significant reduction"}, {"measurement": "weight loss", "setting": "MiaPaCa-2 tumors; 55 mg/kg/day, daily for 5 days, initial study", "result": 10, "unit": "%"}, {"measurement": "MiaPaCa-2 tumor growth vs untreated controls (in words)", "setting": "MiaPaCa-2 tumors; 55 mg/kg/day, daily for 5 days, preliminary data not shown", "result": "reduced MiaPaCa-2 tumor growth"}, {"measurement": "tolerability (in words)", "setting": "MiaPaCa-2 tumors; 66 mg/kg/day i.p., 5 consecutive days", "result": "not tolerated"}, {"measurement": "death", "setting": "MiaPaCa-2 tumors; [7]", "result": 60, "unit": "%"}, {"measurement": "weight loss", "setting": "MiaPaCa-2 tumors; [7]", "result": "−15", "unit": "%"}, {"measurement": "MiaPaCa-2 tumor growth vs untreated group (in words)", "setting": "MiaPaCa-2 tumors; experiment comparing 44 or 55 mg/kg/day daily for 5 days", "result": "significant inhibition of MiaPaCa-2 tumor growth"}, {"measurement": "inhibition of PIM-1", "setting": "PIM-1 [4]; [5]", "result": "more than 70%"}, {"measurement": "IC50", "setting": "PIM-1 [4]; eight-point concentration range 10 nM to 50 μM", "result": 19100, "unit": "nM"}, {"measurement": "inhibition of PIM-1", "setting": "PIM-1 [4]; [6]", "result": 84, "unit": "%"}]}]}
